# Assay results published in US12486302B2, “Somatostatin receptor antagonist compounds and methods of using the same” (CDRD VENTURES INC., priority 2016, dated 2025).
# *1 amine or outer side, *2 acyl side, *3 side chain or, on linkers, in order; H or OH if unused. Where a SMILES comes first, the peptide text is derived from it. Bridges are numbered along the chain shown (N, C = ends). Side-chain parts run from the residue outwards. [ ]: non-standard residue; d: D form. The star is where a group is joined. ξ: configuration not given here. X3 = O=C([C@@H](Cc1ccc(NCCN2CCOCC2)cc1)N[*:1])[*:2]; dPhe(4-CONH2) = NC(=O)c1ccc(C[C@@H](N)C(=O)O)cc1; dPhe(4-CH2NH2) = NCc1ccc(C[C@@H](N)C(=O)O)cc1; dPhe(4-NH2) = Nc1ccc(C[C@@H](N)C(=O)O)cc1; Phe(4-Cl) = N[C@@H](Cc1ccc(Cl)cc1)C(=O)O; Ethyl(2-morpholino) = C1CN(CC*)CCO1; Lys(Me2) = CN(C)CCCC[C@H](N)C(=O)O; Lys(Me) = CNCCCC[C@H](N)C(=O)O; Thr(3ξ) = CC(O)[C@H](N)C(=O)O; Nicotinoyl = O=C(c1cccnc1)*; ξY = NC(Cc1ccc(O)cc1)C(=O)O; dNMeC = CN[C@H](CS)C(=O)O; dDap = NC[C@@H](N)C(=O)O; Dap = NC[C@H](N)C(=O)O; CO = O=C([*:1])[*:2]; NHPh = c1ccc(N*)cc1
# Key:
# SSTR3 = SSTR3 (Homo sapiens, UniProt P32745); test: PathHunter β-Arrestin assay, antagonist mode, SSTR3; assay type: cell-based; conditions: agonist challenge at EC80
# Description: The PathHunter® β-Arrestin assay monitors the activation of a GPCR in a homogenous, non-imaging assay format using a technology developed by DiscoveRx called Enzyme Fragment Complementation (EFC) with β-galactosidase (β-Gal) as the functional reporter. […] EA is fused to β-Arrestin and […] is fused to the GPCR of interest. When the GPCR is activated and β-Arrestin is recruited to the receptor, ED and EA complementation occurs, restoring β-Gal activity which is measured using chemiluminescent PathHunter® Detection Reagents. For antagonist determination, cells were pre-incubated with the compounds followed by agonist challenge at the EC80 concentration. Data was normalized to the maximal and minimal response observed in the presence of EC80 ligand and vehicle. Compound activity was analyzed using CBIS data analysis suite ChemInnovation, CA). Percentage inhibition was calculated using the following formula: % Inhibition=100%×(1−(mean signal of test sample-mean signal of vehicle control)/(mean signal of EC80 control-mean signal of vehicle control)). Percentage inhibition was calculated at 10 concentrations in steps on a Log 3 scale ranging from […] to 5e-5 μM. The results were plotted for IC50 calculation.
# [1] = molecular target: somatostatin type 2 (SSTR2) receptors (Homo sapiens, UniProt P30874); test: PathHunter β-Arrestin assay, antagonist mode, SSTR2; assay type: cell-based; conditions: agonist challenge at EC80
# Method in brief: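 Cells co-expressing PK-tagged human receptor and EA-β-Arrestin were pre-incubated with compound, then challenged with agonist at EC80. β-Gal complementation read by chemiluminescence; % inhibition normalized to EC80 and vehicle controls at 10 concentrations (log 3 steps from 1 μM down to 5e-5 μM), fitted for IC50.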
# Sequence of somatostatin type 2 (SSTR2) receptors (P30874 whole entry): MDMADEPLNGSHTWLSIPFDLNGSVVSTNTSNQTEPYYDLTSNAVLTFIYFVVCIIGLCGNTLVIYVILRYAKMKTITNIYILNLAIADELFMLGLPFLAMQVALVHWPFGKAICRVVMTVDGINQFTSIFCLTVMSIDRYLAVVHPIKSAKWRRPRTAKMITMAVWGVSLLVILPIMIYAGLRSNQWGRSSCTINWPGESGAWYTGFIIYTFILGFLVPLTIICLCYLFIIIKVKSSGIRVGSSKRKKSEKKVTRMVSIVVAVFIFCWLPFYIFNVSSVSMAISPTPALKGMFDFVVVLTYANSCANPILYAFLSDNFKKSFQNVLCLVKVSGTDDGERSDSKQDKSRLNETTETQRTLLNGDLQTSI
# Sequence of SSTR3 (P32745 whole entry, the tested form may be a part): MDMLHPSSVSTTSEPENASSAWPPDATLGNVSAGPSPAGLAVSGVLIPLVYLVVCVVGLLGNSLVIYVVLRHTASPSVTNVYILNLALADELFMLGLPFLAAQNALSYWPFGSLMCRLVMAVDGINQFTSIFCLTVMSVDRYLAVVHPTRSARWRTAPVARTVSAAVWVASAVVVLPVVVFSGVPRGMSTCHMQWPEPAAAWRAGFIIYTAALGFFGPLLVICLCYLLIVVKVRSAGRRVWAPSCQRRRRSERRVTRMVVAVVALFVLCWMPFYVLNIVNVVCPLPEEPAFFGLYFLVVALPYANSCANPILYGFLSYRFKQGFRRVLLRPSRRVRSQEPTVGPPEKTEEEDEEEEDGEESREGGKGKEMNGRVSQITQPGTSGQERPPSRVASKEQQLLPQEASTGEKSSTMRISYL
SMILES,IC50 (SSTR3) [nM],IC50 [1] [nM]
"C[C@@H](O)[C@@H]1NC(=O)[C@H](CCCCN)NC(=O)[C@@H](Cc2ccc(NC(=O)[C@@H](N)CCC(=O)O)cc2)NC(=O)[C@H](Cc2ccc(O)cc2)NC(=O)[C@H](NC(=O)[C@@H](N)Cc2ccc(Cl)cc2)CSSC[C@@H](C(=O)N[C@H](Cc2ccc(O)cc2)C(N)=O)NC1=O [Compound 20, H-Cpa-cyclo[DCys- Tyr-D-4-(Glu)Aph- Lys-Thr-Cys]- DTyr-NH2] (H-[Phe(4-Cl)][dC]Y[dPhe(4-NH2)](Glu)KTC[dY]-NH2; disulfide 2-7)",> 1000,924
"C[C@@H](O)[C@@H]1NC(=O)[C@H](CCCCN)NC(=O)[C@@H](Cc2ccc(NCCN3CCOCC3)cc2)NC(=O)[C@H](Cc2ccc(O)cc2)NC(=O)[C@H](NC(=O)[C@@H](N)Cc2ccc(Cl)cc2)CSSC[C@@H](C(=O)N[C@H](Cc2ccc(O)cc2)C(N)=O)NC1=O [Compound 11, H-Cpa-cyclo [DCys-Tyr- D-4-(2-(4- morpholinyl) ethyl)Aph- Lys-Thr-Cys]- DTyr-NH2] (H-[Phe(4-Cl)][dC]Y[X3]KTC[dY]-NH2; disulfide 2-7)",> 1000,243
"C[C@@H](O)[C@@H]1NC(=O)[C@H](CCCCN)NC(=O)[C@@H](Cc2ccc(NC(=O)[C@@H]3CCCN3)cc2)NC(=O)[C@H](Cc2ccc(O)cc2)NC(=O)[C@H](NC(=O)[C@@H](N)Cc2ccc(Cl)cc2)CSSC[C@@H](C(=O)N[C@H](Cc2ccc(O)cc2)C(N)=O)NC1=O [Compound 10, H-Cpa-cyclo[DCys- Tyr-D-4-(Pro) Aph-Lys- Thr-Cys]- DTyr-NH2] (H-[Phe(4-Cl)][dC]Y[dPhe(4-NH2)](Pro)KTC[dY]-NH2; disulfide 2-7)",> 1000,> 1000
"C[C@@H](O)[C@@H]1NC(=O)[C@H](CCCCN)NC(=O)[C@@H](Cc2ccc(NC(=O)[C@@H](N)CO)cc2)NC(=O)[C@H](Cc2ccc(O)cc2)NC(=O)[C@H](NC(=O)[C@@H](N)Cc2ccc(Cl)cc2)CSSC[C@@H](C(=O)N[C@H](Cc2ccc(O)cc2)C(N)=O)NC1=O [Compound 16, H-Cpa-cyclo[DCys- Tyr-D-4-(Ser) Aph-Lys-Thr- Cys]-DTyr-NH2] (H-[Phe(4-Cl)][dC]Y[dPhe(4-NH2)](Ser)KTC[dY]-NH2; disulfide 2-7)",> 1000,234
"C[C@@H](O)[C@@H]1NC(=O)[C@H](CCCCN)NC(=O)[C@@H](Cc2ccc(OCCN3CCOCC3)cc2)NC(=O)[C@H](Cc2ccc(O)cc2)NC(=O)[C@H](NC(=O)[C@@H](N)Cc2ccc(Cl)cc2)CSSC[C@@H](C(=O)N[C@H](Cc2ccc(O)cc2)C(N)=O)NC1=O [Compound 13, H-Cpa-cyclo[DCys- Tyr-D-(2-(4- morpholinyl)ethyl) Tyr-Lys-Thr- Cys]-DTyr-NH2] (H-[Phe(4-Cl)][dC]Y[dY](Ethyl(2-morpholino))KTC[dY]-NH2; disulfide 2-7)",> 1000,334
"CC(=O)NCc1ccc(C[C@H]2NC(=O)[C@H](Cc3ccc(O)cc3)NC(=O)[C@H](NC(=O)[C@@H](N)Cc3ccc(Cl)cc3)CSSC[C@@H](C(=O)N[C@H](Cc3ccc(O)cc3)C(N)=O)NC(=O)[C@H]([C@@H](C)O)NC(=O)[C@H](CCCCN)NC2=O)cc1 [Compound 6, H-Cpa-cyclo[DCys- Tyr-D-(4- acetamido- methyl)Phe- Lys-Thr-Cys]-DTyr- NH2] (H-[Phe(4-Cl)][dC]Y[dPhe(4-CH2NH2)](Ac)KTC[dY]-NH2; disulfide 2-7)",> 1000,166
"C[C@@H](O)[C@@H]1NC(=O)[C@H](CCCCN)NC(=O)[C@@H](Cc2ccc(NC(=O)[C@@H](N)CC(N)=O)cc2)NC(=O)[C@H](Cc2ccc(O)cc2)NC(=O)[C@H](NC(=O)[C@@H](N)Cc2ccc(Cl)cc2)CSSC[C@@H](C(=O)N[C@H](Cc2ccc(O)cc2)C(N)=O)NC1=O [Compound 19, H-Cpa-cyclo[DCys- Tyr-D-4-(Asn) Aph-Lys-Thr- Cys]-DTyr-NH2] (H-[Phe(4-Cl)][dC]Y[dPhe(4-NH2)](Asn)KTC[dY]-NH2; disulfide 2-7)",> 1000,> 1000

# More lines, now with the values ahead:
IC50 (SSTR3) [nM],IC50 [1] [nM],SMILES
> 1000,458,"CC(C)[C@H](N)C(=O)Nc1ccc(C[C@H]2NC(=O)[C@H](Cc3ccc(O)cc3)NC(=O)[C@H](NC(=O)[C@@H](N)Cc3ccc(Cl)cc3)CSSC[C@@H](C(=O)N[C@H](Cc3ccc(O)cc3)C(N)=O)NC(=O)[C@H]([C@@H](C)O)NC(=O)[C@H](CCCCN)NC2=O)cc1 [Compound 23, H-Cpa-cyclo[DCys- Tyr-D-4-(Val)Aph- Lys-Thr-Cys]- DTyr-NH2] (H-[Phe(4-Cl)][dC]Y[dPhe(4-NH2)](Val)KTC[dY]-NH2; disulfide 2-7)"
> 1000,> 1000,"C[C@@H](O)[C@@H]1NC(=O)[C@H](CCCCN)NC(=O)[C@@H](Cc2ccc(NC(=O)[C@@H](N)CCC(N)=O)cc2)NC(=O)[C@H](Cc2ccc(O)cc2)NC(=O)[C@H](NC(=O)[C@@H](N)Cc2ccc(Cl)cc2)CSSC[C@@H](C(=O)N[C@H](Cc2ccc(O)cc2)C(N)=O)NC1=O [Compound 21, H-Cpa-cyclo[DCys- Tyr-D-4-(Gln)Aph- Lys-Thr-Cys]- DTyr-NH2] (H-[Phe(4-Cl)][dC]Y[dPhe(4-NH2)](Gln)KTC[dY]-NH2; disulfide 2-7)"
–,> 1000,"CC(O)[C@@H]1NC(=O)[C@H](CCCCN)NC(=O)[C@@H](Cc2ccc(C(N)=O)cc2)NC(=O)[C@H](Cc2ccc(O)cc2)NC(=O)[C@H](NC(=O)[C@@H](N)Cc2ccc(Cl)cc2)CSC(=O)NC[C@@H](C(=O)N[C@H](Cc2ccc(O)cc2)C(N)=O)NC1=O (stereo partly drawn) [Compound 62, H-Cpa-cyclo[DCys- Tyr-DPhe(4- CONH2)- Lys-Thr-Dap]- DTyr-NH2] (H-[Phe(4-Cl)][dC]Y[dPhe(4-CONH2)]K[Thr(3ξ)][Dap][dY]-NH2; linker 2-7 via CO)"
–,3.35,"CNCCCC[C@@H]1NC(=O)[C@@H](Cc2ccc(C(N)=O)cc2)NC(=O)[C@H](Cc2ccc(O)cc2)NC(=O)[C@H](NC(=O)[C@H](Cc2ccc(Cl)cc2)NC(=O)CNC(C)=O)CSSC[C@@H](C(=O)N[C@H](Cc2ccc(O)cc2)C(N)=O)NC(=O)[C@H]([C@@H](C)O)NC1=O [Compound 55, Ac-Gly-Cpa-cyclo[D-Cys-Tyr-D-Phe(4-carbamoyl)-Lys(N^ε-Me)-Thr-Cys]-D-Tyr-NH2] (Ac-G[Phe(4-Cl)][dC]Y[dPhe(4-CONH2)][Lys(Me)]TC[dY]-NH2; disulfide 3-8)"
–,28.7,"C[C@@H](O)[C@@H]1NC(=O)[C@H](CCCCN)NC(=O)[C@@H](Cc2ccc(C(N)=O)cc2)NC(=O)[C@H](Cc2ccc(Cl)cc2)NC(=O)[C@H](NC(=O)[C@@H](N)Cc2ccc(Cl)cc2)CSSC[C@@H](C(=O)NC(Cc2ccc(O)cc2)C(N)=O)NC1=O (stereo partly drawn) [Compound 36, H-Cpa-cyclo[DCys- Cpa-D-(4- carbamoyl)Phe-Lys- Thr-Cys]-DTyr-NH2] (H-[Phe(4-Cl)][dC][Phe(4-Cl)][dPhe(4-CONH2)]KTC[ξY]-NH2; disulfide 2-7)"
–,2.46,"C[C@@H](O)[C@@H]1NC(=O)[C@H](CCCCN(C)C)NC(=O)[C@@H](Cc2ccc(C(N)=O)cc2)NC(=O)[C@H](Cc2ccc(O)cc2)NC(=O)[C@H](NC(=O)[C@@H](N)Cc2ccc(Cl)cc2)CSSC[C@@H](C(=O)NC(Cc2ccc(O)cc2)C(N)=O)NC1=O (stereo partly drawn) [Compound 32, H-Cpa-cyclo[D-Cys-Tyr-D-Phe(4-carbamoyl)-Lys(N^ε-diMe)-Thr-Cys]-D-Tyr-NH2] (H-[Phe(4-Cl)][dC]Y[dPhe(4-CONH2)][Lys(Me2)]TC[ξY]-NH2; disulfide 2-7)"
–,6.79,"C[C@@H](O)[C@@H]1NC(=O)[C@H](CCCCN)NC(=O)[C@@H](Cc2ccc(C(N)=O)cc2)NC(=O)[C@H](Cc2ccc(O)cc2)NC(=O)[C@H](N(C)C(=O)[C@@H](N)Cc2ccc(Cl)cc2)CSSC[C@@H](C(=O)N[C@H](Cc2ccc(O)cc2)C(N)=O)NC1=O [Compound 78, H-Cpa- [NMeDCys- Tyr-DPhe (4-carbamoyl)- Lys-Thr-Cys]- DTyr-NH2] (H-[Phe(4-Cl)][dNMeC]Y[dPhe(4-CONH2)]KTC[dY]-NH2; disulfide 2-7)"
–,> 1000,C[C@@H](O)[C@@H]1NC(=O)[C@H](CCCCN)NC(=O)[C@@H](Cc2ccc(NC(=O)Nc3ccccc3)cc2)NC(=O)[C@H](Cc2ccc(O)cc2)NC(=O)[C@H](NC(=O)[C@@H](N)Cc2ccc(Cl)cc2)CNC(=O)C[C@@H](C(=O)N[C@H](Cc2ccc(O)cc2)C(N)=O)NC1=O [Compound 70] (H-[Phe(4-Cl)][dDap]Y[dPhe(4-NH2)]([CO-NHPh])KTD[dY]-NH2; lactam 2-7)
–,> 1000,C[C@@H](O)[C@@H]1NC(=O)[C@H](CCCCN)NC(=O)[C@@H](Cc2ccc(C(N)=O)cc2)NC(=O)[C@H](Cc2ccc(O)cc2)NC(=O)[C@H](NC(=O)[C@@H](N)Cc2ccc(Cl)cc2)CC=CC[C@@H](C(=O)N[C@H](Cc2ccc(O)cc2)C(N)=O)NC1=O [Compound 67]
–,177,"CNCCCC[C@@H]1NC(=O)[C@@H](CCCCNC(=O)c2cccnc2)NC(=O)[C@H](Cc2ccc(O)cc2)NC(=O)[C@H](NC(=O)[C@@H](N)Cc2ccc(Cl)cc2)CSSC[C@@H](C(=O)NC(Cc2ccc(O)cc2)C(N)=O)NC(=O)[C@H]([C@@H](C)O)NC1=O (stereo partly drawn) [Compound 30, H-Cpa-cyclo[D-Cys-Tyr-D-Lys(N^ε-nicotinoyl)-Lys(N^ε-Me)-Thr-Cys]-D-Tyr-NH2] (H-[Phe(4-Cl)][dC]Y[dK](Nicotinoyl)[Lys(Me)]TC[ξY]-NH2; disulfide 2-7)"
